Measurements: ChEMBL document CHEMBL1255321, “Prevalence of the erm(T) gene in clinical isolates of erythromycin-resistant group D Streptococcus and Enterococcus” (2008)
In brackets after ≈: the same amount, converted by molar mass. Activity calls are given as the source filed them. The calls are words filed in the database; no cut-off is given here.

Columns and labels:
Streptococcus sp. [1] = test: Antimicrobial activity against Group D Streptococcus sp. clinical isolates assessed as resistant isolates; format: functional
Streptococcus sp. [2] = test: Antimicrobial activity against Group D Streptococcus sp. clinical isolates expressing erm(T) gene by Etest; format: functional
Enterococcus faecium [3] = test: Antimicrobial activity against Group D Enterococcus faecium clinical isolate expressing erm(B) gene by disk diffusion method; format: functional, organism-based
Enterococcus faecalis = test: Antimicrobial activity against Group D Enterococcus faecalis clinical isolate expressing erm(B) gene by disk diffusion method; format: functional, organism-based
Enterococcus faecium [4] = test: Antimicrobial activity against Group D Enterococcus faecium clinical isolate expressing erm(B) and erm(T) genes by disk diffusion method; format: functional, organism-based
Streptococcus sp. [5] = test: Antimicrobial activity against erythromycin-resistant Group D Streptococcus sp. clinical isolates expressing erm(T) gene by Etest; format: functional

`CCC[C@@H]1C[C@@H](C(=O)N[C@@H]([C@H]2O[C@H](SC)[C@H](O)[C@@H](O)[C@H]2O)[C@H](C)Cl)N(C)C1` [CLINDAMYCIN] showed an Activity (Streptococcus sp. [1]) of 33% and an MIC (Streptococcus sp. [2]) of 0.125 µg/mL (≈ 0.294 µM).
`CC[C@H]1OC(=O)[C@H](C)[C@@H](O[C@H]2C[C@@](C)(OC)[C@@H](O)[C@H](C)O2)[C@H](C)[C@@H](O[C@@H]2O[C@H](C)C[C@H](N(C)C)[C@H]2O)[C@](C)(O)C[C@@H](C)C(=O)[C@H](C)[C@@H](O)[C@]1(C)O` [ERYTHROMYCIN] was tested, and the Activity (Enterococcus faecium [3]) was “inactive”, the Activity (Streptococcus sp. [1]) was 54% and the Activity (Enterococcus faecalis) was “inactive”. The MIC (Streptococcus sp. [2]) was 0.064 µg/mL (≈ 0.0872 µM), the Activity (Enterococcus faecium [4]) was “inactive” and the MIC (Streptococcus sp. [5]) was no less than 256 µg/mL.
